Laboratory results taken from patent US20240217968A1, “PHARMACEUTICAL COMPOUND” (DUKE STREET BIO LIMITED, priority 2021, published 2024).

The compounds below were run against T1, recombinant human Flag-tagged PARP7 (amino acids 456-657) (Homo sapiens, UniProt Q7Z3E1) (assay: PARP7 biochemical DELFIA assay (auto-MARylation)). Settings: DELFIA readout, IC50 class.
T1 construct: recombinant human Flag-tagged PARP7 (amino acids 456-657)
T1 sequence (Q7Z3E1 456-657): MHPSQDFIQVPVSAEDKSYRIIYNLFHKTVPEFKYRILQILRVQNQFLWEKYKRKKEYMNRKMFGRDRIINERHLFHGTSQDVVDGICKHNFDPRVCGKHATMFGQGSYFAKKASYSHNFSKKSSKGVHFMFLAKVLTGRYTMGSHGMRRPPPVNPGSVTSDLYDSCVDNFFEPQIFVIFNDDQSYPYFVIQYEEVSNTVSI
Method in brief: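 Readout is DELFIA time-resolved Eu fluorescence (Ex337 nm, Em620 nm) of biotin-ADP-ribose on immobilised Flag-tagged PARP7 456-657. Enzyme (12.5-37.5 nM as added) sat 30 min with compound before biotin-NAD+ (15 μM solution, pH 7.5 HEPES buffer) started 2-3 h room-temperature self-modification, stopped with excess NAD+.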
For `CC(COCCC(=O)N1CCN(c2ncccc2C(F)(F)F)CC1)n1nc(C(F)(F)F)c2c(=O)[nH]ncc21` (stereo not shown) [Compound 353], the IC50 was no more than 100 nM.
In the case of `CC(COCCC(=O)N1CCN(c2ncccc2C(F)(F)F)CC1)n1nc(C(F)(F)F)c2c(=O)[nH]ncc21` (stereo not shown) [Compound 354], the IC50 is reported as 100 to 1000 nM.
`CC(COCCC(=O)N1CCN(c2ncccc2Cl)CC1)n1nc(C(F)(F)F)c2c(=O)[nH]ncc21` (stereo not shown) [Compound 355] gave an IC50 of no more than 100 nM.
Compound `CC1(C)CN(C(=O)CCOCCn2cc(C(F)(F)F)c3c(=O)[nH]ncc32)CCN1c1ncc(C(F)(F)F)cn1` [Compound 358] has an IC50 of no more than 100 nM.
`O=C(CCOCCn1cc(C(F)(F)F)c2c(=O)[nH]ncc21)N1CCN(c2nc3cc(Cl)ccc3o2)CC1` [Compound 359] gave an IC50 of no more than 100 nM.
`N#Cc1ccc2oc(N3CCN(C(=O)CCOCCn4cc(C(F)(F)F)c5c(=O)[nH]ncc54)CC3)nc2c1` [Compound 361] was tested, and the IC50 was no more than 100 nM.
With `N#Cc1ccc2nc(N3CCN(C(=O)CCOCCn4cc(C(F)(F)F)c5c(=O)[nH]ncc54)CC3)oc2c1` [Compound 362] the IC50 was no more than 100 nM.
`O=C(CCOCCn1cc(C(F)(F)F)c2c(=O)[nH]ncc21)N1CCN(c2nc(C(F)(F)F)co2)CC1` [Compound 363] was tested, and the IC50 was no more than 100 nM.
Work on `O=C(CCOCCn1nc(C(F)(F)F)c2c(=O)[nH]ncc21)N1CCN(c2cc(C(F)(F)F)on2)CC1` [Compound 364] yielded an IC50 of no more than 100 nM.
`Cn1c(=O)n(CCOCCC(=O)N2CCN(c3ncc(C(F)(F)F)cn3)CC2)c2cn[nH]c(=O)c21` [Compound 367] was tested, and the IC50 was no more than 100 nM.
`CC(COCCC(=O)N1CCN(c2ncccc2F)CC1)n1nc(C(F)(F)F)c2c(=O)[nH]ncc21` (stereo not shown) [Compound 369] was tested, and the IC50 was no more than 100 nM.
In the case of `CC1CN(C(=O)CCOCCn2cc(C(F)(F)F)c3c(=O)[nH]ncc32)CCN1c1ncc(C(F)(F)F)cn1` (stereo not shown) [Compound 372], the IC50 is reported as no more than 100 nM.
With `CC1CN(C(=O)CCOCCn2cc(C(F)(F)F)c3c(=O)[nH]ncc32)CCN1c1ncc(C(F)(F)F)cn1` (stereo not shown) [Compound 373] the IC50 was no more than 100 nM.
For `CC(COCCC(=O)N1CCN(c2ccc(Cl)cn2)CC1)n1cc(C(F)(F)F)c2c(=O)[nH]ncc21` (stereo not shown) [Compound 374], the IC50 was no more than 100 nM.
`CC(COCCC(=O)N1CCN(c2ccc(C(F)(F)F)cn2)CC1)n1cc(C(F)(F)F)c2c(=O)[nH]ncc21` (stereo not shown) [Compound 376] was tested, and the IC50 was no more than 100 nM.
Work on `CC(COCCC(=O)N1CCN(c2ccc(C(F)(F)F)cn2)CC1)n1cc(C(F)(F)F)c2c(=O)[nH]ncc21` (stereo not shown) [Compound 377] yielded an IC50 of no more than 100 nM.
Work on `CC1(C)CN(c2ncc(C(F)(F)F)cn2)CCN1C(=O)CCOCCn1cc(C(F)(F)F)c2c(=O)[nH]ncc21` [Compound 378] yielded an IC50 of no more than 100 nM.
`O=C(CCOCCn1cc(C(F)(F)F)c2c(=O)[nH]ncc21)N1CCN(c2nc3ccccc3o2)CC1` [Compound 379] gave an IC50 of no more than 100 nM.
In the case of `O=C(CCOCCn1cc(C(F)(F)F)c2c(=O)[nH]ncc21)N1CCN(c2nc3ccccc3[nH]2)CC1` [Compound 380], the IC50 is reported as no more than 100 nM.
`Cn1c(N2CCN(C(=O)CCOCCn3cc(C(F)(F)F)c4c(=O)[nH]ncc43)CC2)nc2ccccc21` [Compound 381] showed an IC50 of no more than 100 nM.
Work on `O=C(CCOCCn1cc(C(F)(F)F)c2c(=O)[nH]ncc21)N1CCN(c2nc3ccc(Cl)cc3o2)CC1` [Compound 382] yielded an IC50 of no more than 100 nM.
`O=C(CCOCCn1nc(C(F)(F)F)c2c(=O)[nH]ncc21)N1CCN(c2ncc(C(F)(F)F)o2)CC1` [Compound 383] gave an IC50 of no more than 100 nM.
In the case of `O=C(CCOCCn1cc(C(F)(F)F)c2c(=O)[nH]ncc21)N1CCN(c2ncc(C(F)(F)F)o2)CC1` [Compound 384], the IC50 is reported as no more than 100 nM.
With `CN(C(=O)COCCn1cc(C(F)(F)F)c2c(=O)[nH]ncc21)C1CCN(c2ncc(C(F)(F)F)cn2)CC1` [Compound 385] the IC50 was no more than 100 nM.
In the case of `CC(COCCC(=O)N1CCN(c2ncc(C(F)(F)F)cn2)CC1)n1nc(C(F)(F)F)c2c(=O)[nH]ccc21` (stereo not shown) [Compound 388], the IC50 is reported as no more than 100 nM.
For `CC(COCCC(=O)N1CCN(c2ncc(C(F)(F)F)cn2)CC1)n1nc(C(F)(F)F)c2c(=O)[nH]ccc21` (stereo not shown) [Compound 389], the IC50 was no more than 100 nM.
`O=C(CCOCCn1nc(C(F)(F)F)c2c(=O)[nH]ncc21)N1CCN(c2nnc(C(F)(F)F)[nH]2)CC1` [Compound 391] showed an IC50 of no more than 100 nM.
`CC(COCCC(=O)N1CCN(c2nnc(C(F)(F)F)[nH]2)CC1)n1nc(C(F)(F)F)c2c(=O)[nH]ncc21` (stereo not shown) [Compound 392] gave an IC50 of 100 to 1000 nM.
Compound `O=C(CCOCCn1nc(C(F)(F)F)c2c(=O)[nH]ncc21)N1CCN(c2ncc3c(n2)NCCC3)CC1` [Compound 394] has an IC50 of no more than 100 nM.
`CC(COCCC(=O)N1CCN(c2ncc(C(F)(F)F)cn2)CC1)n1c(=O)n(C)c2c(=O)[nH]ncc21` (stereo not shown) [Compound 397] was tested, and the IC50 was no more than 100 nM.
`CC(COCCC(=O)N1CCN(c2ncc(C(F)(F)F)cn2)CC1)n1c(=O)n(C)c2c(=O)[nH]ncc21` (stereo not shown) [Compound 398] showed an IC50 of no more than 100 nM.
`CC(COCCC(=O)N1CCN(c2ncc(C(F)(F)F)cn2)CC1)c1ccc(Cl)c2c(=O)[nH]ncc12` (stereo not shown) [Compound 399] was tested, and the IC50 was 100 to 1000 nM.
Compound `CC(COCCC(=O)N1CCN(c2ncc(C(F)(F)F)cn2)CC1)c1ccc(Cl)c2c(=O)[nH]ncc12` (stereo not shown) [Compound 400] has an IC50 of no more than 100 nM.
Compound `O=C(CCOCCn1nc(C(F)(F)F)c2c(=O)[nH]c(=O)[nH]c21)N1CCN(c2ncc(C(F)(F)F)cn2)CC1` [Compound 401] has an IC50 of no more than 100 nM.
Work on `Cc1nn(CCOCCC(=O)N2CCN(c3ncc(C(F)(F)F)cn3)CC2)c2[nH]c(=O)[nH]c(=O)c12` [Compound 402] yielded an IC50 of no more than 100 nM.
In the case of `O=C(CCOCCn1cc(C(F)(F)F)c2c(=O)[nH]c(=O)[nH]c21)N1CCN(c2ncc(C(F)(F)F)cn2)CC1` [Compound 403], the IC50 is reported as no more than 100 nM.
Work on `Cc1cn(CCOCCC(=O)N2CCN(c3ncc(C(F)(F)F)cn3)CC2)c2[nH]c(=O)[nH]c(=O)c12` [Compound 404] yielded an IC50 of no more than 100 nM.
Compound `O=C(c1cccc(Cn2nc(C(F)(F)F)c3c(=O)[nH]ncc32)c1)N1CCN(c2ncc(C(F)(F)F)cn2)CC1` [Compound 407] has an IC50 of no more than 100 nM.
In the case of `[2H]C([2H])(Cn1nc(C(F)(F)F)c2c(=O)[nH]ncc21)OCCC(=O)N1CCN(c2ncc(C#N)cn2)CC1` [Compound 408], the IC50 is reported as no more than 100 nM.
`[2H]C([2H])(Cn1nc(C(F)(F)F)c2c(=O)[nH]ncc21)OCCC(=O)N1CCN(c2ncc(C(F)(F)F)cn2)CC1` [Compound 409] was tested, and the IC50 was no more than 100 nM.
`O=C(CCOCCc1c(Cl)ccc2c(=O)[nH]ncc12)N1CCN(c2ncc(C(F)(F)F)cn2)CC1` [Compound 410] gave an IC50 of no more than 100 nM.
With `CC(COCCn1cc(C(F)(F)F)c2c(=O)[nH]ncc21)C(=O)N1CCN(c2ncc(C(F)(F)F)cn2)CC1` (stereo not shown) [Compound 412] the IC50 was no more than 100 nM.
`O=C(CCOCCn1c(=O)ccc2c(=O)[nH]ncc21)N1CCN(c2ncc(C(F)(F)F)cn2)CC1` [Compound 413] gave an IC50 of no more than 100 nM.
Work on `CC(COCCC(=O)N1CCN(c2ncc(C#N)cn2)CC1)c1ccc(Cl)c2c(=O)[nH]ncc12` (stereo not shown) [Compound 415] yielded an IC50 of no more than 100 nM.
Compound `CC(COCCC(=O)N1CCN(c2ccc(C#N)cn2)CC1)c1ccc(Cl)c2c(=O)[nH]ncc12` (stereo not shown) [Compound 417] has an IC50 of no more than 100 nM.
Compound `[2H]C([2H])(OCCC(=O)N1CCN(c2ncc(C(F)(F)F)cn2)CC1)C(C)n1nc(C(F)(F)F)c2c(=O)[nH]ncc21` (stereo not shown) [Compound 422] has an IC50 of no more than 100 nM.
In the case of `O=C(CCOCC(F)(F)c1cccc2c(=O)[nH]ncc12)N1CCN(c2ncc(C(F)(F)F)cn2)CC1` [Compound 424], the IC50 is reported as no more than 100 nM.
`CC(C)(COCCC(=O)N1CCN(c2ncc(C(F)(F)F)cn2)CC1)c1cccc2c(=O)[nH]ncc12` [Compound 425] was tested, and the IC50 was 100 to 1000 nM.
With `O=C(CCOCC(c1cccc2c(=O)[nH]ncc12)C(F)(F)F)N1CCN(c2ncc(C(F)(F)F)cn2)CC1` (stereo not shown) [Compound 426] the IC50 was 1000 to 10000 nM.
`N#Cc1nn(CCOCCC(=O)N2CCN(c3ncc(C(F)(F)F)cn3)CC2)c2cn[nH]c(=O)c12` [Compound 428] gave an IC50 of no more than 100 nM.
Compound `O=C(CCOCCn1nc(C(F)(F)F)c2c(=O)[nH]ncc21)N1CCN(C2CN(CC(F)(F)F)C2)CC1` [Compound 433] has an IC50 of 1000 to 10000 nM.
`O=C(CCOCCn1nc(C(F)(F)F)c2c(=O)[nH]ncc21)N1CCN(c2nnc(C(F)(F)F)o2)CC1` [Compound 434] showed an IC50 of no more than 100 nM.
`CC(COCCC(=O)N1CCN(c2ncc(C(F)(F)F)cn2)CC1)n1nc(C(F)F)c2c(=O)[nH]ncc21` (stereo not shown) [Compound 435] gave an IC50 of no more than 100 nM.
`CC(COCCC(=O)N1CCN(c2ccc(C#N)cn2)CC1)n1nc(C(F)F)c2c(=O)[nH]ncc21` (stereo not shown) [Compound 438] was tested, and the IC50 was no more than 100 nM.
`CC(COCCC(=O)N1CCN(c2ncc(C#N)cn2)CC1)n1cc(C(F)F)c2c(=O)[nH]ncc21` (stereo not shown) [Compound 440] gave an IC50 of no more than 100 nM.
Work on `O=C(OCCCCn1nc(C(F)(F)F)c2c(=O)[nH]ncc21)N1CCN(c2ncc(C(F)(F)F)cn2)CC1` [Compound 441] yielded an IC50 of no more than 100 nM.
Compound `O=C(Cn1nc(C(F)(F)F)c2c(=O)[nH]ncc21)N1CCC(C(=O)N2CCN(c3ncc(C(F)(F)F)cn3)CC2)C1` (stereo not shown) [Compound 442] has an IC50 of 1000 to 10000 nM.
`O=C(Cn1nc(C(F)(F)F)c2c(=O)[nH]ncc21)N1CCC(C(=O)N2CCN(c3ncc(C(F)(F)F)cn3)CC2)C1` (stereo not shown) [Compound 443] showed an IC50 of 1000 to 10000 nM.
With `N#Cc1ccc(N2CCN(C(=O)CCOCC(F)(F)c3cccc4c(=O)[nH]ncc34)CC2)nc1` [Compound 446] the IC50 was no more than 100 nM.
Work on `O=c1[nH]ncc2c1c(C(F)(F)F)nn2CCOCCS(=O)(=O)N1CCN(c2ncc(C(F)(F)F)cn2)CC1` [Compound 447] yielded an IC50 of no more than 100 nM.
`CC(COCCC(=O)N1CCN(c2ccc(C#N)cn2)CC1)n1cc(C(F)F)c2c(=O)[nH]ncc21` (stereo not shown) [Compound 449] gave an IC50 of no more than 100 nM.
With `CC(COCCC(=O)N1CCN(c2ncc(Cl)cn2)CC1)n1cc(C(F)F)c2c(=O)[nH]ncc21` (stereo not shown) [Compound 450] the IC50 was no more than 100 nM.
`CC(COCCC(=O)N1CCN(c2ncc(Cl)cn2)CC1)n1cc(C(F)F)c2c(=O)[nH]ncc21` (stereo not shown) [Compound 451] showed an IC50 of no more than 100 nM.
For `CC(CCOCC(=O)N1CCN(c2ncc(Cl)cn2)CC1)n1nc(C(F)(F)F)c2c(=O)[nH]ncc21` (stereo not shown) [Compound 452], the IC50 was no more than 100 nM.
